Reference: PubChem BioAssay AID1963860 (Molecular Pharmacology Branch, DTP, NCI, 2024)

Tested on: CN0375-F725-PDC KRAS spheroid viability
Assay: Anticancer human tumor CN0375-F725-PDC patient-derived colon carcinoma cell line growth inhibition [KRAS2]
Settings: spheroids with HUVEC and MSC; for IC50: curve of first compound; for viability, T/C: stronger effect = lower value
Outline: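 KRAS-mutant tumor cells were grown as spheroids with HUVEC endothelial cells and human MSCs as stroma. Targeted agents were tested alone and with KRAS pathway inhibitors. Doses started at or near clinical Cmax, or 10 microM, descending half-log.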

[1] = second compound 0.1 µM, first compound 0.0316 µM
[2] = second compound 0.1 µM, first compound 0.1 µM
[3] = second compound 0.1 µM, first compound 0.316 µM
[4] = second compound 0.1 µM, first compound 1 µM
[5] = second compound 0.1 µM, first compound 3.16 µM
[6] = second compound 0.316 µM, first compound 0.0316 µM
[7] = second compound 0.316 µM, first compound 0.1 µM
[8] = second compound 0.316 µM, first compound 0.316 µM
[9] = second compound 0.316 µM, first compound 1 µM
[10] = second compound 0.316 µM, first compound 3.16 µM
[11] = second compound 1 µM, first compound 0.0316 µM
[12] = second compound 1 µM, first compound 0.1 µM
[13] = second compound 1 µM, first compound 0.316 µM
[14] = second compound 1 µM, first compound 1 µM
[15] = second compound 1 µM, first compound 3.16 µM
[16] = second compound 3.16 µM, first compound 0.0316 µM
[17] = second compound 3.16 µM, first compound 0.1 µM
[18] = second compound 3.16 µM, first compound 0.316 µM
[19] = second compound 3.16 µM, first compound 1 µM
[20] = second compound 3.16 µM, first compound 3.16 µM
[21] = second compound 10 µM, first compound 0.0316 µM
[22] = second compound 10 µM, first compound 0.1 µM
[23] = second compound 10 µM, first compound 0.316 µM
[24] = second compound 10 µM, first compound 1 µM
[25] = second compound 10 µM, first compound 3.16 µM
[26] = second compound 0.1 µM, first compound 10 µM
[27] = second compound 0.316 µM, first compound 10 µM
[28] = second compound 1 µM, first compound 10 µM
[29] = second compound 3.16 µM, first compound 10 µM
[30] = second compound 10 µM, first compound 10 µM
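Further: spheroids exposed to agents for 7 days.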

| Compound | IC50 (second compound 0.1 µM) [nM] | IC50 (second compound 0.316 µM) [nM] | IC50 (second compound 1 µM) [nM] | IC50 (second compound 3.16 µM) [nM] | IC50 (second compound 10 µM) [nM] | viability, T/C [1] [%] | viability, T/C [2] [%] | viability, T/C [3] [%] | viability, T/C [4] [%] | viability, T/C [5] [%] | viability, T/C [6] [%] | viability, T/C [7] [%] | viability, T/C [8] [%] | viability, T/C [9] [%] | viability, T/C [10] [%] | viability, T/C [11] [%] | viability, T/C [12] [%] | viability, T/C [13] [%] | viability, T/C [14] [%] | viability, T/C [15] [%] | other results |
| --- | --- | --- | --- | --- | --- | --- | --- | --- | --- | --- | --- | --- | --- | --- | --- | --- | --- | --- | --- | --- | --- |
| CC1COCCN1c1cc(-c2ccnn2C)c2ccnc(-c3ccn[nH]3)c2n1 (stereo not given) + COc1cc2nc(C)nc(NC(C)c3cc(N)cc(C(F)(F)F)c3)c2cc1OC1CCOC1 | > 3160 | > 3160 | > 3160 | 2720 | < 10 | 95 | 86.5 | 78.3 | 71.1 | 54.1 | 91.4 | 76 | 74.8 | 67.9 | 50.8 | 96.1 | 78 | 71.8 | 65.6 | 49.5 | viability, T/C (second compound 0.1 µM, first compound 0.01 µM): 101%; viability, T/C (second compound 0.316 µM, first compound 0.01 µM): 98.7%; viability, T/C (second compound 1 µM, first compound 0.01 µM): 101%; viability, T/C (second compound 3.16 µM, first compound 0.01 µM): 87.5%; viability, T/C [16]: 88.2%; viability, T/C [17]: 71.7%; viability, T/C [18]: 65.3%; viability, T/C [19]: 58.1%; viability, T/C [20]: 48.1%; viability, T/C (second compound 10 µM, first compound 0.01 µM): 15%; viability, T/C [21]: 19.3%; viability, T/C [22]: 17.1%; viability, T/C [23]: 13.9%; viability, T/C [24]: 18.1%; viability, T/C [25]: 9.84% |
| CC1OCC2(CCN(c3cnc(Sc4ccnc(N)c4Cl)c(N)n3)CC2)C1N (stereo not given) + COc1cc2nc(C)nc(NC(C)c3cc(N)cc(C(F)(F)F)c3)c2cc1OC1CCOC1 | > 10000 | > 10000 | > 10000 | 4640 | < 31.6 | 95.5 | 83.2 | 80.6 | 81.2 | 76 | 90.5 | 91.7 | 73.3 | 77.8 | 71 | 91.3 | 87.2 | 81.3 | 73.9 | 68.7 | viability, T/C [26]: 70.7%; viability, T/C [27]: 60.6%; viability, T/C [28]: 60.4%; viability, T/C [16]: 80.9%; viability, T/C [17]: 73.8%; viability, T/C [18]: 69%; viability, T/C [19]: 57.2%; viability, T/C [20]: 61.3%; viability, T/C [29]: 40.1%; viability, T/C [21]: 13.6%; viability, T/C [22]: 12.1%; viability, T/C [23]: 12.8%; viability, T/C [24]: 8.09%; viability, T/C [25]: 8.5%; viability, T/C [30]: 5.15% |
| CCNC(=O)CC1N=C(c2ccc(Cl)cc2)c2cc(OC)ccc2-n2c(C)nnc21 (stereo not given) + COc1cc2nc(C)nc(NC(C)c3cc(N)cc(C(F)(F)F)c3)c2cc1OC1CCOC1 | 8600 | 6560 | 7200 | 1960 | < 31.6 | 97.9 | 88.2 | 77.7 | 78.2 | 63.7 | 94.2 | 87.6 | 78.1 | 71.7 | 63.4 | 87.4 | 84.5 | 71.2 | 69.7 | 60.6 | viability, T/C [26]: 45.8%; viability, T/C [27]: 42.5%; viability, T/C [28]: 45.4%; viability, T/C [16]: 79.1%; viability, T/C [17]: 79.4%; viability, T/C [18]: 64.9%; viability, T/C [19]: 58.6%; viability, T/C [20]: 44.8%; viability, T/C [29]: 32.5%; viability, T/C [21]: 12.7%; viability, T/C [22]: 8.68%; viability, T/C [23]: 5%; viability, T/C [24]: 3.29%; viability, T/C [25]: 2.26%; viability, T/C [30]: 1.29% |
| Cn1nccc1Nc1nccc(-c2cc3c(s2)C(C)(C)N(CCN2CCOCC2)C3=O)n1 + COc1cc2nc(C)nc(NC(C)c3cc(N)cc(C(F)(F)F)c3)c2cc1OC1CCOC1 | 2530 | 2200 | 1570 | 487 | < 31.6 | 96.5 | 85.8 | 68.7 | 59.9 | 47.2 | 88.8 | 83.2 | 67.2 | 59.9 | 45.2 | 92.9 | 80.5 | 63.8 | 53.2 | 46.1 | viability, T/C [26]: 41.6%; viability, T/C [27]: 39.6%; viability, T/C [28]: 37.6%; viability, T/C [16]: 75.6%; viability, T/C [17]: 68.8%; viability, T/C [18]: 53.8%; viability, T/C [19]: 41.6%; viability, T/C [20]: 35.1%; viability, T/C [29]: 28.2%; viability, T/C [21]: 11.9%; viability, T/C [22]: 13.1%; viability, T/C [23]: 10.9%; viability, T/C [24]: 8.43%; viability, T/C [25]: 4.35%; viability, T/C [30]: 1.87% |
